The values that follow come from patent publication US10428017B2, “Modulators of the cystic fibrosis transmembrane conductance regulator protein and methods of use” (AbbVie S.à.r.l., priority 2017, dated 2019).

Where two headings read alike, the source gives them in different places. A value given as a limit tells only on which side of the number the result lay.

The target of the assay is T1, F508delCFTR (Homo sapiens, UniProt P13569, DEL508-508).
T1 construct: expressed in transfected cells; host or cells: CFBE4lo-F508delCFTR-HRP cells (human lung derived epithelial cell line, doxycycline-inducible)
As to the kind of experiment: Cell Surface Expression-Horse Radish Peroxidase (CSE-HRP) Assay. Type of assay: cell-based. The following applies: for EC50: CFBE4lo-F508delCFTR-HRP cells, 18-24 hours at 33° C.; for Emax / Maximum % activity (with co-corrector): maximum at any tested concentration (up to 20 μM), normalized to on-plate positive control (2 μM co-corrector); for Maximum % activity (with co-corrector): with co-corrector 2 μM. How it is done:
Cell Surface Expression-Horse Radish Peroxidase (CSE-HRP) Assay
A cellular assay for measuring the F508delCFTR cell surface expression after correction with test compounds either without or with a co-corrector (2 μM of 3-[(2R,4R)-4-({[1-(2,2-difluoro-1,3-benzodioxol-5-yl)cyclopropyl]carbonyl}amino)-7-methoxy-3,4-dihydro-2H-chromen-2-yl]benzoic acid), was developed in human lung derived epithelial cell line (CFBE4lo−) (Veit G et al, (2012) Mol Biol Cell. 23(21): 4188-4202). The development was achieved by expressing the F508delCFTR mutation along with a horseradish peroxidase (HRP) in the fourth exofacial loop, and then measuring the HRP activity using luminescence readout from these cells, CFBE4lo-F508delCFTR-HRP, that were incubated overnight with the test corrector compounds, either without or with the co-corrector. For this primary assay, the CFBE4lo-F508delCFTR-HRP cells were plated in 384-well plates (Greiner Bio-one; Cat 781080) at 4,000 cells/well along with 0.5 μg/mL doxycycline to induce the F508delCFTR-HRP expression and further incubated at 37° C., 5% CO2 for 72 hours. The test compounds were then added either without or with a co-corrector at the required concentrations and further incubated for 18-24 hours at 33° C. The highest concentration tested was 20 μM with an 8-point concentration response curve using a 3-fold dilution in both the test compound without or with the co-corrector. Three replicate plates were run to determine one EC50. All plates contained negative controls (dimethyl sulfoxide, DMSO) and positive control (2 μM of 3-[(2R,4R)-4-({[1-(2,2-difluoro-1,3-benzodioxol-5-yl)cyclopropyl]carbonyl}amino)-7-methoxy-3,4-dihydro-2H-chromen-2-yl]benzoic acid) as well as on-plate concentration response of the positive control. Post incubation, the plates were washed 5× times with Dulbecco's phosphate buffered saline (DPBS), followed by the addition of the HRP substrate, luminol (50 μL), and measuring the HRP activity using luminescence readout on EnVision® Multilabel Plate Reader (Perkin Elmer; product number 2104-0010). The raw counts from the experiment were analyzed using Accelrys® Assay Explorer v3.3.
Z′ greater than 0.5 was used as passing quality control criteria for the plates.
The Z′ is defined as: 1−[3*SDPositive Control+3*SDNegative Control/Absolute(Meanpostivie Control−MeanNegative Control)] wherein “SD” is standard deviation.
The % activity measured at each of the 8 test concentrations of the test compound added either without or with a co-corrector (2 μM of 3-[(2R,4R)-4-({[1-(2,2-difluoro-1,3-benzodioxol-5-yl)cyclopropyl]carbonyl}amino)-7-methoxy-3,4-dihydro-2H-chromen-2-yl]benzoic acid) was normalized to the on-plate positive control using the following formulae: % activity(Test compound without co-corrector)=[(test compound without co-corrector response−DMSO response)/(positive control response−DMSO response)]*100 % activity(Test compound with co-corrector)=[(test compound with co-corrector response−DMSO response)/(positive control response−DMSO response)]*100
The maximum % activity achieved for the test compound either without or with a co-corrector at any tested concentration is presented in Table 1 along with the respective EC50's calculated using the following general sigmoidal curve with variable Hill slope equation (described as Model 42 in the Accelrys® Assay Explorer v3.3 software): y=(a−d)/(1+(x/c)^b)+d
General sigmoidal curve with concentration, response, top, bottom, EC50 and Hill slope. This model describes a sigmoidal curve with an adjustable baseline, a. The equation can be used to fit curves where response is either increasing or decreasing with respect to the independent variable, “x”.
“x” is a concentration of drug under test.
“a” is the maximum response, and “d” is the minimum response
“c” is the inflection point (EC50) for the curve. That is, “y” is halfway between the lower and upper asymptotes when x=c.
“b” is the slope-factor or Hill coefficient. […]

[1] abbreviates: test compound without co-corrector, HRP luminescence readout, read-out: EC50 (without co-corrector).
The mark [2] stands for this setting: test compound without co-corrector.
Setting [3] is: with co-corrector 2 μM 3-[(2R,4R)-4-({[1-(2,2-difluoro-1,3-benzodioxol-5-yl)cyclopropyl]carbonyl}amino)-7-methoxy-3,4-dihydro-2H-chromen-2-yl]benzoic acid, read-out: EC50 (with co-corrector).

T1 sequence (P13569 with tags, fused parts or gaps DEL508-508): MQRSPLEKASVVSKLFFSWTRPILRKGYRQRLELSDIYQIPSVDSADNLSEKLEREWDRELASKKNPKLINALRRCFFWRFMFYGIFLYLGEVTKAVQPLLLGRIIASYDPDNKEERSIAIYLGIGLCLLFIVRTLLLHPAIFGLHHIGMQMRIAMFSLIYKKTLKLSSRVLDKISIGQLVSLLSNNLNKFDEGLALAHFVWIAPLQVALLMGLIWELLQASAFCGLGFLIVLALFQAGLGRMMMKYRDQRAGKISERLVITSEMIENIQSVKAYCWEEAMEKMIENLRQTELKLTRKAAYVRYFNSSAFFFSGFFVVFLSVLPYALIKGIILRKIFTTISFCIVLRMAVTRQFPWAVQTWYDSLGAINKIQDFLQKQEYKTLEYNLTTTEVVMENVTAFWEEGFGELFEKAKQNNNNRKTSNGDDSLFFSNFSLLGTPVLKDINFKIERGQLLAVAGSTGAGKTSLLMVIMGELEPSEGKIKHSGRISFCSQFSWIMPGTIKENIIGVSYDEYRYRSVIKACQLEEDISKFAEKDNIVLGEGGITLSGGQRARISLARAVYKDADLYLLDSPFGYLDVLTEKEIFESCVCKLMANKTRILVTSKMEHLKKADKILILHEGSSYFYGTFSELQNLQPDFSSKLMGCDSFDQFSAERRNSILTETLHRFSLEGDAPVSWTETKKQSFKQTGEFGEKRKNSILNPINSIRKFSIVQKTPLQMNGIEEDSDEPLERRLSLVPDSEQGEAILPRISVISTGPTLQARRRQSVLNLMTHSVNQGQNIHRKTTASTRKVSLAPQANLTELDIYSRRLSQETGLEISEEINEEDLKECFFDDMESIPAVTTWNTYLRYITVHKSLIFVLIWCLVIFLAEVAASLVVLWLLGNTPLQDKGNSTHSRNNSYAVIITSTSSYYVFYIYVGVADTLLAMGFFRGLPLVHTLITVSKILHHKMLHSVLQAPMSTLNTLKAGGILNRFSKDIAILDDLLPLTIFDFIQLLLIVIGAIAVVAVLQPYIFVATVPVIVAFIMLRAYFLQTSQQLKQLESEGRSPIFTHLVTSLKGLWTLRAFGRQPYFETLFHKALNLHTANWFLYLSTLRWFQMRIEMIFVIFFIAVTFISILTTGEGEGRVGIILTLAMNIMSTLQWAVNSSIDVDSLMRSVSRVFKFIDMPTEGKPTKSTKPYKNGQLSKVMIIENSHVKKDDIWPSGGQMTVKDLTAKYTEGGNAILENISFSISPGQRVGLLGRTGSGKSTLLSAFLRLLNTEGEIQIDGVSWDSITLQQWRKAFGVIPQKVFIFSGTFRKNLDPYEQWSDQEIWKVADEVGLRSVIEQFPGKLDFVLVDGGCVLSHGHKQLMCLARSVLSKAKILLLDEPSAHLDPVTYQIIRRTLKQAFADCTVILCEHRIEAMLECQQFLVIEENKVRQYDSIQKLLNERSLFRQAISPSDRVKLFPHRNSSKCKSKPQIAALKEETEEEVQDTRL

Usually EC50 stands for the concentration needed to bring the measured effect to its halfway point. The term Emax denotes the maximal effect, on the per cent scale that the assay sets. For `CCC1(C(=O)NS(=O)(=O)c2cccc3ccccc23)COc2ccccc21` (centres unmarked) [Example 23, 3-ethyl-N-(naphthalene-1-sulfonyl)-2,3-dihydro-1-benzofuran-3-carboxamide], the “Maximum % activity (with co-corrector)” value was “++ (≥150 and <350)”. Under setting [1], the half-maximal effective concentration (EC50) is below 3 µM. The Emax under setting [2] was below 50%. For the same compound, the 50% effective concentration (EC50) under setting [3] was below 3 µM.

In the case of `O=C(NS(=O)(=O)c1cccc2ccccc12)C1CCOc2ccccc21` (centres unmarked) [Example 24, N-(naphthalene-1-sulfonyl)-3,4-dihydro-2H-1-benzopyran-4-carboxamide], the “Maximum % activity (with co-corrector)” value is given as “+++ (≥350)”. Besides, under setting [1], the EC50 lay within 3 to 10 µM. Besides, under setting [2], the Emax was in the range of 50 to 150%. The EC50 under setting [3] was in the range of 3 to 10 µM.

As for `COc1cccc2c1OCC2C(=O)NS(=O)(=O)c1cccc2ccccc12` (centres unmarked) [Example 25, 7-methoxy-N-(naphthalene-1-sulfonyl)-2,3-dihydro-1-benzofuran-3-carboxamide], the “Maximum % activity (with co-corrector)” value was “++ (≥150 and <350)”. Also, the EC50 under setting [1] lay within 3 to 10 µM. This compound also gave an Emax under setting [2] below 50%. Also, under setting [3], the EC50 lay in the range of 3 to 10 µM.

For the compound `CC(C)c1ccc(S(=O)(=O)NC(=O)C2(C)Cc3ccccc3O2)cc1` (centres unmarked) [Example 26, 2-methyl-N-[4-(propan-2-yl)benzene-1-sulfonyl]-2,3-dihydro-1-benzofuran-2-carboxamide], the “Maximum % activity (with co-corrector)” value is “+ (<150)”. The EC50 under setting [1] was at least 10 µM. Further, under setting [2], the Emax was below 50%. Under setting [3], the concentration giving a half-maximal response (EC50) is at least 10 µM.

As to `Cc1ccccc1S(=O)(=O)NC(=O)C1COc2ccc(Cl)cc21` (centres unmarked) [Example 27, 5-chloro-N-(2-methylbenzene-1-sulfonyl)-2,3-dihydro-1-benzofuran-3-carboxamide], the “Maximum % activity (with co-corrector)” value is listed as “+ (<150)”. For the same compound, under setting [1], the EC50 was at least 10 µM. Also, the Emax under setting [2] was below 50%. Further, the concentration giving a half-maximal response (EC50) under setting [3] was at least 10 µM.

For `CCCS(=O)(=O)NC(=O)C1COc2ccc(Cl)cc21` (centres unmarked) [Example 28, 5-chloro-N-(propane-1-sulfonyl)-2,3-dihydro-1-benzofuran-3-carboxamide], the “Maximum % activity (with co-corrector)” value was “+ (<150)”. Further, the EC50 under setting [1] was at least 10 µM. Also, the Emax under setting [2] is below 50%. The EC50 under setting [3] is at least 10 µM.

As for `Cc1ccccc1S(=O)(=O)NC(=O)C1COc2ccccc21` (centres unmarked) [Example 29, N-(2-methylbenzene-1-sulfonyl)-2,3-dihydro-1-benzofuran-3-carboxamide], the “Maximum % activity (with co-corrector)” value is given as “+ (<150)”. In addition, under setting [1], the concentration giving a half-maximal response (EC50) was at least 10 µM. Under setting [2], this compound displayed a maximal effect (Emax) below 50%. Besides, the concentration for a half-maximal effect (EC50) under setting [3] is at least 10 µM.

As for `Cc1ccccc1S(=O)(=O)NC(=O)C1CCOc2ccccc21` (centres unmarked) [Example 30, N-(2-methylbenzene-1-sulfonyl)-3,4-dihydro-2H-1-benzopyran-4-carboxamide], the “Maximum % activity (with co-corrector)” value is recorded as “+ (<150)”. Further, the EC50 under setting [1] is at least 10 µM. Besides, under setting [2], the maximal effect (Emax) was below 50%. Also, under setting [3], the half-maximal effective concentration (EC50) lay within 3 to 10 µM.

With `O=C(NS(=O)(=O)c1cccc2ccccc12)C1(c2ccccc2)C[C@@H](CN2CCCC2)Oc2ccccc21` (stereo partly drawn) [Example 31, (2S)—N-(naphthalene-1-sulfonyl)-4-phenyl-2-[(pyrrolidin-1-yl)methyl]-3,4-dihydro-2H-1-benzopyran-4-carboxamide], the “Maximum % activity (with co-corrector)” value was “++ (≥150 and <350)”. Besides, the 50% effective concentration (EC50) under setting [1] is at least 10 µM. Under setting [2], this compound returned a maximal effect (Emax) below 50%. Also, the EC50 under setting [3] is 3 to 10 µM.

As for `C[C@@]1(C(=O)NS(=O)(=O)c2cccc3ccccc23)COc2cc3c(cc21)OC(F)(F)O3` [Example 32, (7S)-2,2-difluoro-7-methyl-N-(naphthalene-1-sulfonyl)-6,7-dihydro-2H-furo[2,3-f][1,3]benzodioxole-7-carboxamide], the “Maximum % activity (with co-corrector)” value was “++ (≥150 and <350)”. For the same compound, the EC50 under setting [1] is 3 to 10 µM. The compound also had a maximal effect (Emax) under setting [2] below 50%. The concentration for a half-maximal effect (EC50) under setting [3] fell in the range of 3 to 10 µM.

As to `C[C@]1(C(=O)NS(=O)(=O)c2cccc3ccccc23)COc2cc3c(cc21)OC(F)(F)O3` [Example 33, (7R)-2,2-difluoro-7-methyl-N-(naphthalene-1-sulfonyl)-6,7-dihydro-2H-furo[2,3-f][1,3]benzodioxole-7-carboxamide], the “Maximum % activity (with co-corrector)” value was “++ (≥150 and <350)”. The EC50 under setting [1] was at least 10 µM. Moreover, the Emax under setting [2] is below 50%. The half-maximal effective concentration (EC50) under setting [3] is at least 10 µM.

For the compound `O=C(NS(=O)(=O)c1cccc2ccccc12)C1COc2ccccc21` (centres unmarked) [Example 34, N-(naphthalene-1-sulfonyl)-2,3-dihydro-1-benzofuran-3-carboxamide], the “Maximum % activity (with co-corrector)” value is given as “+ (<150)”. Under setting [1], the concentration giving a half-maximal response (EC50) was at least 10 µM. Moreover, the Emax under setting [2] is below 50%. For the same compound, the half-maximal effective concentration (EC50) under setting [3] was at least 10 µM.

In the case of `COc1ccc(Br)c2c1[C@@H](C(=O)NS(=O)(=O)c1cccc3ccccc13)CCO2` [Example 35, (4S)-8-bromo-5-methoxy-N-(naphthalene-1-sulfonyl)-3,4-dihydro-2H-1-benzopyran-4-carboxamide], the “Maximum % activity (with co-corrector)” value is “+++ (≥350)”. The EC50 under setting [1] lay within 3 to 10 µM. The compound also showed an Emax under setting [2] of 50 to 150%. Further, the concentration giving a half-maximal response (EC50) under setting [3] is 3 to 10 µM.

As to `COc1ccc(Br)c2c1[C@H](C(=O)NS(=O)(=O)c1cccc3ccccc13)CCO2` [Example 36, (4R)-8-bromo-5-methoxy-N-(naphthalene-1-sulfonyl)-3,4-dihydro-2H-1-benzopyran-4-carboxamide], the “Maximum % activity (with co-corrector)” value was “+++ (≥350)”. Further, the EC50 under setting [1] was below 3 µM. Also, under setting [2], the Emax was at least 150%. The EC50 under setting [3] is below 3 µM.

With `COc1ccc(Br)c2c1OCC2C(=O)NS(=O)(=O)c1cccc2ccccc12` (centres unmarked) [Example 37, 4-bromo-7-methoxy-N-(naphthalene-1-sulfonyl)-2,3-dihydro-1-benzofuran-3-carboxamide], the “Maximum % activity (with co-corrector)” value was “+++ (≥350)”. Further, the EC50 under setting [1] lay in the range of 3 to 10 µM. Besides, the Emax under setting [2] was at least 150%. The half-maximal effective concentration (EC50) under setting [3] is below 3 µM.

As for `COc1cccc2c1C(C(=O)NS(=O)(=O)c1cccc3ccccc13)CC1(CCCCC1)O2` (centres unmarked) [Example 38, 5-methoxy-N-(naphthalene-1-sulfonyl)-3,4-dihydrospiro[1-benzopyran-2,1′-cyclohexane]-4-carboxamide], the “Maximum % activity (with co-corrector)” value is listed as “+++ (≥350)”. Further, the EC50 under setting [1] is below 3 µM. This compound returned an Emax under setting [2] of at least 150%. Besides, the 50% effective concentration (EC50) under setting [3] is below 3 µM.

On to `COc1ccc(Br)c2c1C(C(=O)NS(=O)(=O)c1cccc3ccccc13)CO2` (centres unmarked) [Example 39, 7-bromo-4-methoxy-N-(naphthalene-1-sulfonyl)-2,3-dihydro-1-benzofuran-3-carboxamide], for which the “Maximum % activity (with co-corrector)” value is “+++ (≥350)”. In addition, under setting [1], the half-maximal effective concentration (EC50) was below 3 µM. The same compound registered a maximal effect (Emax) under setting [2] of at least 150%. The half-maximal effective concentration (EC50) under setting [3] is below 3 µM.
